Patent US20070208021A1, “Phenoxyacetic Acid Derivatives and Drug Comprising The Same” (DAIICHI PHARMACEUTICAL CO., LTD., priority 2004, published 2007)
Values after ≈ are worked out from the molar mass of the structure shown. Structures can show the parent of a compound that is named as a salt. Where two headings read alike, the source gives them in different places.

Columns and labels:
hPPARγ = molecular target: T1, hPPARγ (Homo sapiens, UniProt P37231); assay: GAL4-hPPAR transactivation assay (PPARγ); type: cell-based; details: HEK293T cells, pFA-hPPARγ/GAL4 + pFR-SEAP reporter, about 48 hours
T1 construct: expressed in transfected cells; host or cells: HEK293T
T1 sequence (P37231 238-503 limits assumed): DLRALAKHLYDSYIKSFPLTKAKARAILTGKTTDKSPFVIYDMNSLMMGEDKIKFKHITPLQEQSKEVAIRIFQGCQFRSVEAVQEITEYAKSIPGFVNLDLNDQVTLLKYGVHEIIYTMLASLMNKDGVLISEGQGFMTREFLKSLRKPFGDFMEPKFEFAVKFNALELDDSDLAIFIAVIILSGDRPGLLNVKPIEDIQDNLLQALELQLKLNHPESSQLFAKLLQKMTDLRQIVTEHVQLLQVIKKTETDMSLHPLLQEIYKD
Excerpt: (§1) GAL4-hPPAR Transactivation Assay
(§2) Plasmids for the expression of fusion protein for GAL4 DNA binding region-PPAR ligand binding region, pFA-hPPARα/GAL4 and pFA-hPPARγ/GAL4, were constructed by inserting the LBD cDNA of hPPARα and hPPARγ, respectively, into a commercially-available expression vector (pFA trans-activator plasmid, by STRATAGENE) having a GAL4 DNA binding region (GAL4 DBD) of yeast, under CMV promoter. For the expression of a reporter protein, used were a commercially-available plasmid (pFR-SEAP, by STRATAGENE) having a GAL4 responsive region (GAL4 UAS) in the upstream of cDNA of a secreted alkaline phosphatase (SEAP).
(§3) (b) Cell Culture and Transactivation Assay:
(§4) HEK293T cells were suspended in a high-glucose Dulbecco's modified Eagle's medium (DMEM) containing 10% fetal calf serum (by Hyclone), 100 U/mL penicillin G and […], and seeded in a 24-well cell culture plate in a density of 8×10^4 cells/well. The cells were cultured in a humidified atmosphere of 5% CO2 at 37° C. for 24 hours, and then subjected to transfection using Lipofectamine (by Invitrogen) and Plus reagent (by Invirogen) according to the manufacture's instruction in the absence of serum. Concretely, the cells were incubated in 225 μL of a transfection medium (OPTI-MEM, by Invitrogen) containing 0.48 μL of Lipofectamine, 0.030 μg of pFA-PPAR/GAL4 expression plasmid and 0.13 μg of pFR-SEAP, in a 5% CO2 atmosphere at 37° C. for 5 hours. Next, the same volume of a fresh high-glucose DMEM containing 10% fetal calf serum, 100 U/mL penicillin G, […] streptomycin sulfate and a test compound of two times the designated concentration was added to it, and the cells were incubated for about 48 hours. After the compound was solubilized in DMSO, control cells were incubated along with an equivalent concentration of DMSO. […] After the incubation, the culture supernatant was collected, and using a kit (reporter assay kit—SEAP, by TOYOBO), the SEAP activity was determined according to the manufacturer's instruction. Concretely, the same amount of an intrinsic alkaline phosphatase inhibitor was added to 5 μL of the culture supernatant and incubated at 37° C. for 30 minutes, and then 100 μL of a chemoluminescent substrate (Lumiphos PLUS, by Lumigen) was added thereto and incubated at 37° C. for 15 minutes, and thereafter the luminescence level was determined using a multi-label counter (ARVOsx, by Perkin Elmer). The values obtained as a result of the above operation and the concentrations of the test compound were plotted to obtain the EC50 value.

[1] = Lipid solubility: octanol / pH 7.4 phosphate buffer partition coefficient; type: physicochemical; details: n-octanol / pH 7.4 isotonic phosphate buffer, read-out: log D (pH 7.4)
Protocol: An equi-volume mixture of n-octanol (hereinafter referred to as octanol) and pH 7.4 isotonic phosphate buffer (hereinafter referred to as aqueous phase) was shaken in a suitable vessel, then statically left for 24 hours or more, and the upper layer (water-saturated octanol) and the lower layer (octanol-saturated water) were separately collected.
1 mg of a test compound was put into a test tube, and 5 ml of the water-saturated octanol was added thereto, ultrasonicated for 10 minutes and then stirred for about 30 seconds. In case where an insoluble substance was seen, then the liquid was filtered through a 0.45-μm membrane filter. 2 mL of the water-saturated octanol solution of the test compound was taken into a test tube, 2 mL of the octanol-saturated water was added thereto and shaken for 30 minutes. Then, this was centrifuged to separate into an upper layer (octanol phase) and a lower layer (aqueous phase), which were then separately collected.
The octanol phase and the aqueous phase were suitably diluted with DMSO, and the concentration of the test compound therein was determined through UV-detection HPLC or MS-detection HPLC.
From the concentration measured in each phase and the dilution ratio of each phase, the partition coefficient was derived through computation.
In case where the solubility in water of the test compound is estimated to be high, then the test compound is dissolved in the octanol-saturated water and then the water-saturated octanol is added thereto, shaken and centrifuged, and the upper layer (octanol phase) and the lower layer (aqueous phase) are separately collected to determine the concentration of the test compound.
The details of the HPLC apparatus and its operation condition are as follows: […]

[2] = Determination of solubility in JP-fluid 1 / JP-fluid 2 (HPLC); type: physicochemical; details: thermodynamic from solid, 12 hours or more
Protocol: Determination of Solubility
One mg of a test compound was put into a test tube, and 1 ml of the first fluid for Japanese Pharmacopoeia Disintegration Test Method (synthetic gastric juice, pH 1.2: hereinafter referred to as JP-fluid 1) or the second fluid for Japanese Pharmacopoeia Disintegration Test Method (synthetic intestinal juice, pH 6.8: hereinafter referred to as JP-fluid 2) was added thereto and shaken, and then statically left at room temperature for 12 hours or more. After thus left, the sample was filtered through a 0.45-μm membrane filter, and the filtrate was suitably diluted with a mixture of DMSO-purified water (1/1) to prepare solutions for solubility determination.
Apart from the above, 1 mg of the test compound was put into a 20-mL messflask, and dissolved in a mixture of DMSO-purified water (1/1) to prepare a standard solution of 50 μg/mL. The standard solution was stepwise diluted to give serial dilutions, and using the dilutions, a calibration curve was formed.
The above-mentioned solutions for solubility determination with the JP-fluid 1 or the JP-fluid 2 were analyzed through HPLC, and based on the calibration curve formed in the above, the solubility of the test compound was computed.
The HPLC condition is as follows:
HPLC System for Alliance Assay (by Waters, USA),
Feed Pump: 2795 separation module,
UV Detector: 2996 photodiode array detector,
Column: ODS-type C18 column (3.5 μm, 3.0 mm ID×30 mm),
Column Temperature: 60° C.,
Mobile Phase A: pH 4.5, 10 mM acetate buffer,
Mobile Phase B: 50% acetic acid-acetonitrile mixture (1/999),
Gradient Condition: mobile phase A/B ratio, 95/5 to 10/90,
Sample Temperature: 25° C.,
Detection Wavelength: maximum absorption wavelength within a range of 220 to 420 nm.

hPPARα = molecular target: T2, hPPARα (Homo sapiens, UniProt Q07869); assay: GAL4-hPPAR transactivation assay (PPARα); type: cell-based; details: HEK293T cells, pFA-hPPARα/GAL4 + pFR-SEAP reporter, about 48 hours
T2 construct: expressed in transfected cells; host or cells: HEK293T
T2 sequence (Q07869 239-466 limits assumed): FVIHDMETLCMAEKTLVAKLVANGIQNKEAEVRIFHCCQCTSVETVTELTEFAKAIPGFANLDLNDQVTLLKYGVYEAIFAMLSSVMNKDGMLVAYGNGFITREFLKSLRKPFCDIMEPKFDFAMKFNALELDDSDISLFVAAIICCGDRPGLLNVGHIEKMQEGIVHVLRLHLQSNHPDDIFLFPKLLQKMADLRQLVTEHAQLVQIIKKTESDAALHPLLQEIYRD
Excerpt: as §1, §2, §3, §4

[3] = patients associated with type II diabetes; cited from earlier work
[4] = in vivo; cited from earlier work
[5] = db/db mice, as compared with pioglitazone; cited from earlier work
[6] = fassgf or other biorelevant, synthetic intestinal juice, pH 6.8, room temperature, read-out: Solubility JP-fluid 2
[7] = simulated gastric fluid, synthetic gastric juice, pH 1.2, room temperature, read-out: Solubility JP-fluid 1

| SMILES | EC50 (hPPARγ) | logD [1] | solubility [2, 6] | solubility [2, 7] | EC50 (hPPARα) | body weight increase or fluid accumulation [3] | high-density lipoprotein (HDL) [4] | plasma triglyceride [4] | body weight increase [5] |
| --- | --- | --- | --- | --- | --- | --- | --- | --- | --- |
| Cc1cc(CN(Cc2ncco2)Cc2nc(-c3ccccc3)oc2C)cc(C)c1OC(C)(C)C(=O)O [Example 13-(2), 2-[2,6-Dimethyl-4-[[(5-methyl-2-phenyloxazol-4-ylmethyl)oxazol-2-ylmethylamino]methyl]phenoxy]-2-methylpropanoic acid] | 5.5 nM | 1.8 | > 870 µg/mL | > 870 µg/mL | 3.7 nM | – | – | – | – |
| CCc1ccc(CCOc2ccc(CC3SC(=O)NC3=O)cc2)nc1 (centres unmarked) [Pioglitazone, pioglitazone] | – | – | – | – | – | observed in some patients | – | – | – |
| Cc1oc(-c2cccc(Br)c2)nc1CN(Cc1ccncc1)Cc1ccc(OC(C)(C)C(=O)O)cc1 [Example 4-(2), 2-[4-[[[2-(3-Bromophenyl)-5-methyloxazol-4-ylmethyl]pyridin-4-ylmethylamino]methyl]phenoxy]-2-methylpropionic acid] | 180 nM | 2.5 | < 3 µg/mL | 930 µg/mL (≈ 1690 µM) | 4.8 nM | – | – | – | – |
| Cc1oc(-c2ccc(-c3ccccc3)cc2)nc1CCOc1ccc(OC(C)(C)C(=O)O)cc1 [LY465608] | – | – | – | – | – | – | dose-dependently increases | lowers | – |
| COc1ccc(CC2SC(=O)NC2=O)cc1C(=O)NCc1ccc(C(F)(F)F)cc1 (centres unmarked) [KRP-297] | – | – | – | – | – | – | – | – | significantly inhibits the body weight increase |
| Cc1oc(-c2cccc(Br)c2)nc1CN(Cc1ccc(OC(C)(C)C(=O)O)cc1)Cc1cscn1 [Example 5-(2), 2-[4-[[[2-(3-Bromophenyl)-5-methyloxazol-4-ylmethyl]thiazol-4-ylmethylamino]methyl]phenoxy]-2-methylpropionic acid hydrochloride] | 220 nM | 2.3 | 680 µg/mL | 520 µg/mL | 2.6 nM | – | – | – | – |
| Cc1oc(-c2cccc(Br)c2)nc1CN(Cc1ccc(OC(C)(C)C(=O)O)cc1)Cc1nccs1 [Example 1-(2), 2-[4-[[[2-(3-Bromophenyl)-5-methyloxazol-4-ylmethyl]thiazol-2-ylmethylamino]methyl]phenoxy-2-methylpropionic acid hydrochloride] | 590 nM | 2.7 | > 1000 µg/mL | 490 µg/mL | 13 nM | – | – | – | – |

Continued, in another order:

| EC50 (hPPARγ) | logD [1] | solubility [2, 6] | solubility [2, 7] | EC50 (hPPARα) | SMILES | body weight increase or fluid accumulation [3] | high-density lipoprotein (HDL) [4] | plasma triglyceride [4] | body weight increase [5] |
| --- | --- | --- | --- | --- | --- | --- | --- | --- | --- |
| 33 nM | 1.1 | > 710 µg/mL | > 710 µg/mL | 2.9 nM | Cc1nnc(CN(Cc2cc(C)c(OC(C)(C)C(=O)O)c(C)c2)Cc2nc(-c3ccccc3)oc2C)o1 [Example 18-(2), 2-[2,6-Dimethyl-4-[[(5-methyl-[1,3,4]oxadiazol-2-ylmethyl)-(5-methyl-2-phenyloxazol-4-ylmethyl)amino]methyl]phenoxy]-2-methylpropanoic acid] | – | – | – | – |
| 6.9 nM | 1.8 | > 710 µg/mL | 650 µg/mL (≈ 1290 µM) | 2.7 nM | Cc1noc(CN(Cc2cc(C)c(OC(C)(C)C(=O)O)c(C)c2)Cc2nc(-c3ccccc3)oc2C)n1 [Example 19-(3), 2-[2,6-Dimethyl-4-[[(3-methyl-[1,2,4]oxadiazol-5-ylmethyl)-(5-methyl-2-phenyloxazol-4-ylmethyl)amino]methyl]-phenoxy]-2-methylpropanoic acid] | – | – | – | – |
| 8.8 nM | 2.6 | 480 µg/mL (≈ 949 µM) | > 490 µg/mL | 2.4 nM | Cc1cc(CN(Cc2nccs2)Cc2nc(-c3ccccc3)oc2C)cc(C)c1OC(C)(C)C(=O)O [Example 16-(2), 2-[2,6-Dimethyl-4-[[(5-methyl-2-phenyloxazol-4-ylmethyl)thiazol-2-ylmethylamino]methyl]phenoxy]-2-methylpropanoic acid] | – | – | – | – |
| 48 nM | 4.4 | 10 µg/mL (≈ 17.9 µM) | 240 µg/mL (≈ 430 µM) | 44 nM | Cc1cc(CN(Cc2ccco2)Cc2sc(-c3ccc(C(F)(F)F)cc3)nc2C)ccc1OC(C)(C)C(=O)O [SKB-compd, reference compound] | – | – | – | – |
